Test results: patent publication US5998477A, “Substituted methoxy benzylidene indenyl-acetic and propionic acids for treating patients with precancerous lesions” (Cell Pathways Inc., priority 1997, dated 1999)
Entries after “also recorded” stand apart in the source; their conditions may differ.

Assays:
[1] = tested on: DMBA-Induced Mammary Lesions in Organ Culture; assay: Mouse mammary gland organ culture, DMBA-induced mammary lesions; assay type: cell-based, mouse (BALB/c); conditions: vs. vehicle (DMSO), read-out: Percent Inhibition
Method: The compound of Example No. 1 was also tested for its ability to inhibit the incidence of mammary lesions in an organ culture system. This mouse mammary gland organ culture technique has been successfully used by other investigators to study the effects of known cancer-chemopreventative agents such as retinoids and selenium.
Female BALB/c mice, 28 days old, were treated for nine days with a combination of 1 μg of estradiol and 1 mg of progesterone daily, in order to prime the glands to be responsive to hormones in vitro. The animals were sacrificed and thoracic mammary glands were excised aseptically and incubated for ten days in growth media supplemented with growth-promoting hormones: insulin, prolactin, and hydrocortisone, at 5 μg/ml each and aldosterone at 1 μg/ml. A twenty-four hour treatment of 7,12-dimethylbenz(a)anthracene (DMBA, 2 μg/ml) was carried out between days three and four to induce the formation of mammary lesions. Fully developed glands were deprived of prolactin, hydrocortisone, and aldosterone for 14 days, resulting in the regression of the glands but not the mammary lesions. […]
The extent of the area occupied by the mammary lesions was quantitated by projecting an image of the gland onto a digitation pad. […] The space covered by each of the unregressed structures was also outlined on the digitization pad and quantitated by the computer.

HT-29 = assay: Apoptosis/Necrosis by fluorescent microscopy (acridine orange and ethidium bromide); assay type: cell-based, human
Method: (§1) Drug stock solutions were made in 100% DMSO then diluted with RPMI media for cell culture testing. All drug solutions were prepared fresh on the day of testing. The cultured cells were obtained at passage #118 and grown in RPMI media supplemented with 5% fetal calf serum, and 2 mM glutamine, 100 U/ml penicillin, 100 U/ml streptomycin, and 0.25 μg/ml amphotericin. The cultures were maintained in a humidified atmosphere of 95% air and 5% CO2 at 37° C. The cultures were passaged at preconfluent densities using a solution of 0.05% trypsin and 0.53 mM EDTA. All experiments involved HT-29 cells between passages 120 and 140, except for the compound of Example 29 which involved SW-480 cell line. Cells were plated at the following densities to obtain cultures used for the experiments: 500 cells/well for 96 well flat-bottom microtiter plates, 1×10^6 cells 2 per 25 cm^2 flask.
Apoptosis and necrosis were measured using an assay that allowed for the simultaneous measurement of both types of cell death based on morphological characteristics of apoptotic cells (i.e., condensed chromatin) and membrane permeability. Drug preparation and cell culture conditions were the same as for the SRB assay described above. Confluent cultures were established in 25 cm^2 flasks. The cultures were assayed for apoptosis and necrosis by fluorescent microscopy following labeling with acridine orange and ethidium bromide. Floating and attached cells were collected by trypsinization and washed three times in PBS. One ml aliquots of 1×10^6 cells were centrifuged (300 g). The pellet was resuspended in 25 μl media and 1 μl of a dye mixture containing 100 μg/ml acridine orange and 100 μg/ml ethidium bromide prepared in PBS and mixed gently. Ten μl of mixture was placed on a microscope slide and covered with a 22 mm^2 coversilp and examined under 40× dry objectives using epillumination and filter combination.
An observer blinded to the identity of the treatments scored at least 100 cells per sample. Apoptotic cells were identified by nuclear condensation of chromatin stained by the acridine orange or ethidium bromide, respectively. Necrotic cells were identified by uniform labelling of the cell with ethidium bromide.

SW-480 cell line = assay: Tumor cell growth inhibition, Sulforhodamine B (SRB) protein binding assay, SW-480; assay type: cell-based; conditions: Homo sapiens, SW480, 144 h, SW-480, six days exposure, read-out: Single Dose Percent Inhibition
Method: as §1
Tumor cell growth inhibition was assessed using the Sulforhodamine B (SRB) protein binding assay. In this assay, tumor cells were plated in 96-well plates and treated with drug-containing media for six days (continuous exposure). […] The dye was then solubilized, and the optical density of the resulting solution was determined on a 96-well plate reader. […]
For each experiment, an IC50 value was determined, if possible, and used for comparative purposes. […]

[2] = background; cited from earlier work
prostaglandin synthesis = conditions: background; cited from earlier work
[3] = background; sulfoxide itself; cited from earlier work
[4] = background; cited from earlier work; remark: listed apart in the source
colonic polyps = conditions: patients taking the drug; cited from earlier work
precancerous lesions = conditions: background; cited from earlier work

With `COc1cc(/C=C2/C(C)=C(CC(=O)O)c3cc(F)ccc32)cc(OC)c1OC` [Example 1, (Z)-5-fluoro-2-methyl-1-(3,4,5-trimethoxybenzylidene)-3-indenyl-acetic acid] the inhibition at 10 µM ([1]; 10 μM) was 50%, the inhibition at 100 µM ([1]; 100 μM) was 100% and the “% Apoptotic Cells” value (HT-29; 200 μM) was > 90%.
For `COc1cc(OC)c(/C=C2/C(C)=C(CC(=O)O)c3cc(F)ccc32)c(OC)c1` [Example 4, (Z)-5-fluoro-2-methyl-1-(2,4,6-trimethoxybenzyildene)-3-indenyl-acetic acid], the “% Apoptotic Cells” value (HT-29; 200 μM) was > 90%.
With `CC1=C(CC(=O)O)c2cc(F)ccc2/C1=C\c1c(Cl)cccc1Cl` [Example 6, (Z)-5-fluoro-2-methyl-1-(2,6-dichlorobenzylidene)-3-indenyl-acetic acid] the “% Apoptotic Cells” value (HT-29; 200 μM) was 60% and the “% Necrotic Cells” value (HT-29; 200 μM) was 40%.
In the case of `COc1ccc(/C=C2/C(C)=C(CC(=O)O)c3cc(F)ccc32)c(OC)c1OC` [Example 7, (Z)-5-fluoro-2-methyl-1-(2,3,4-trimethoxybenzylidene)-3-indenyl-acetic acid], the “% Apoptotic Cells” value (HT-29; 200 μM) is reported as > 90%.
With `COc1cc(OC)c(OC)cc1/C=C1/C(C)=C(CC(=O)O)c2cc(F)ccc21` [Example 8, (Z)-5-fluoro-2-methyl-1-(2,4,5-trimethoxybenzylidene)-3-indenyl-acetic acid] the “% Apoptotic Cells” value (HT-29; 200 μM) was > 90%.
For `CC1=C(CC(=O)O)c2cc(F)ccc2/C1=C\c1ccccc1` [Example 10, (Z)-5-fluoro-2-methyl-1-benzylidene-3-indenyl-acetic acid], the “% Apoptotic Cells” value (HT-29; 300 μM) was 90%.
In the case of `COc1ccc(/C=C2/C(C)=C(CC(=O)O)c3cc(F)ccc32)cc1` [Example 11, (Z)-5-fluoro-2-methyl-1-(4-methoxybenzylidene)-3-indenyl-acetic acid], the “% Apoptotic Cells” value (HT-29; 200 μM) is reported as > 90%.
`COc1cc(/C=C2/C(C)=C(CC(=O)O)c3cc(F)ccc32)cc(Br)c1OC` [Example 29, (Z)-5-fluoro-2-methyl-1-(3-bromo-4,5-dimethoxybenzylidene)-3-indenyl-acetic acid] gave an inhibition at 100 µM (SW-480 cell line) of 80%.
For `CSc1ccc(/C=C2/C(C)=C(CC(=O)O)c3cc(F)ccc32)cc1` [Sulindac Sulfide], the side effects [2] is given as “associated with the side effects of conventional NSAIDs” and the prostaglandin synthesis inhibition (prostaglandin synthesis) is given as “active moiety as a prostaglandin synthesis inhibitor”.
For `CC1=C(CC(=O)O)c2cc(F)ccc2/C1=C\c1ccc([S+](C)[O-])cc1` (stereo not drawn) [Sulindac], the anti-arthritic activity [3] is listed as “believed to be inactive as an anti-arthritic agent”, the metabolic conversion [4] is listed as “converted by liver enzymes to the corresponding sulfide; also recorded: metabolized to sulfone compound” and the effect on polyps (colonic polyps) is listed as “Polyps virtually disappear”.
In the case of `CC1=C(CC(=O)O)c2cc(F)ccc2/C1=C\c1ccc(S(C)(=O)=O)cc1` [sulfone], the “inhibition of precancerous lesions” value (precancerous lesions) is listed as “active as an inhibitor of precancerous lesions” and the prostaglandin synthesis inhibition (prostaglandin synthesis) is listed as “inactive as an inhibitor of prostaglandin synthesis”.
